Laboratory results published in patent US20250025473A1 (priority 2021, published 2025).

Tests used:
[1] = tested on: phosphatidylserine (PtdS) and Akt; experiment: Translocation of PtdS and Akt to the outer leaflet after HSV-2 (confocal, non-permeabilized); type: cell-based, human; conditions: 10 μM, HaCat, HSV-2(G)
AKT3 = molecular target: T1, AKT3 (Homo sapiens, UniProt Q9Y243); experiment: HotSpot in vitro kinase assay, AKT3; type: biochemical
T1 construct: purchased Reaction Biology Corporation
T1 sequence (Q9Y243 whole entry): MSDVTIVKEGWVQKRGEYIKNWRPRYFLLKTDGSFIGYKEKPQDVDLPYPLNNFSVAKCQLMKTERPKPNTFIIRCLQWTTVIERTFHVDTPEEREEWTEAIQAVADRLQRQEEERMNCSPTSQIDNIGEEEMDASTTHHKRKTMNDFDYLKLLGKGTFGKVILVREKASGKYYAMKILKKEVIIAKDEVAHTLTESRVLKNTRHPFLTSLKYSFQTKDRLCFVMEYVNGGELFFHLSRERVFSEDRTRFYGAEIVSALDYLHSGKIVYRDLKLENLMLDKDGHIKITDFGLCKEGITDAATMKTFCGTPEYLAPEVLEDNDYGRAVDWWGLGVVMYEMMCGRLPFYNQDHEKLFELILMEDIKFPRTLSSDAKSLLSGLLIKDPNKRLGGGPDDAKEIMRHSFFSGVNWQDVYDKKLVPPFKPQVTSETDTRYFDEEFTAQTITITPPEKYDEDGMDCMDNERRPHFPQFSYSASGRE

ABL1 = ABL1 (Homo sapiens, UniProt P00519); experiment: HotSpot in vitro kinase assay, ABL1; conditions: read-out: Compound IC50, ABL1; in vitro kinase activity
Sequence of ABL1 (P00519 whole entry): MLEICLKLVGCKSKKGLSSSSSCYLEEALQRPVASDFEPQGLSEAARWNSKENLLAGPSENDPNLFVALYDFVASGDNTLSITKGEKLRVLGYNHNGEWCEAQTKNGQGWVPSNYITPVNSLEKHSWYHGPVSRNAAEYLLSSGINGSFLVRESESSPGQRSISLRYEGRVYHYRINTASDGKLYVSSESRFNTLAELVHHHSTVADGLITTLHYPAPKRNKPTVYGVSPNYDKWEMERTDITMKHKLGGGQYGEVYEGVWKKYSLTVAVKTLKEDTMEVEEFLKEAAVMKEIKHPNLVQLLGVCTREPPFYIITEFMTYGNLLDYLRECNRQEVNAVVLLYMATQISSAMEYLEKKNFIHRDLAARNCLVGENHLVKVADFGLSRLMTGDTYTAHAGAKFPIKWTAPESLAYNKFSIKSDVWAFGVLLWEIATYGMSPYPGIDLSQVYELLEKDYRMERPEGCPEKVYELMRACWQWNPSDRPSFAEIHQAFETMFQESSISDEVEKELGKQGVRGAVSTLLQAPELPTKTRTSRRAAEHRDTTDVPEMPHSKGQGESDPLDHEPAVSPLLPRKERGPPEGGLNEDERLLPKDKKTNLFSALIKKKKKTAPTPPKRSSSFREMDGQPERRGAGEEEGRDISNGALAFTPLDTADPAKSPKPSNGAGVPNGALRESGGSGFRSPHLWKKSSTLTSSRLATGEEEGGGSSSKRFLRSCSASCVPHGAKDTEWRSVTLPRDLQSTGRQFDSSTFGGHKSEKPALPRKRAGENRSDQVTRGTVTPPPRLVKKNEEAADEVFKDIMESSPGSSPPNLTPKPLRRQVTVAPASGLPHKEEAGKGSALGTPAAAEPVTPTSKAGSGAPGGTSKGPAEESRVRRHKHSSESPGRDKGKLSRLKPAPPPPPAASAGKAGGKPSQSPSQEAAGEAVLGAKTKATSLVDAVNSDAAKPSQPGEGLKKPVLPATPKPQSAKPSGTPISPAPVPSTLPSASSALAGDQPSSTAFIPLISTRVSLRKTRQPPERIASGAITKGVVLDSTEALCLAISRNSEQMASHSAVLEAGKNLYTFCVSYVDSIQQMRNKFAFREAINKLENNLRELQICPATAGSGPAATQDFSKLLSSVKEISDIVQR

HSV-1 K26GFP = experiment: HSV capsid entry, GFP+ cells by confocal imaging; conditions: HaCat, CIMSS 10 μM, anti-Akt 2 μg/ml, cycloheximide 10 μg/ml
VSV-EBOV-GP = type: cell-based
HSV-2(G) [2] = experiment: HSV binding assay (gD Western blot); type: cell-based; conditions: 10 μM, HaCat, 4 hours at 4° C.
PDPK1 = molecular target: T2, PDPK1 (Homo sapiens, UniProt O15530); experiment: HotSpot in vitro kinase assay, PDPK1; type: biochemical
T2 construct: purchased Reaction Biology Corporation
T2 sequence (O15530 1-556): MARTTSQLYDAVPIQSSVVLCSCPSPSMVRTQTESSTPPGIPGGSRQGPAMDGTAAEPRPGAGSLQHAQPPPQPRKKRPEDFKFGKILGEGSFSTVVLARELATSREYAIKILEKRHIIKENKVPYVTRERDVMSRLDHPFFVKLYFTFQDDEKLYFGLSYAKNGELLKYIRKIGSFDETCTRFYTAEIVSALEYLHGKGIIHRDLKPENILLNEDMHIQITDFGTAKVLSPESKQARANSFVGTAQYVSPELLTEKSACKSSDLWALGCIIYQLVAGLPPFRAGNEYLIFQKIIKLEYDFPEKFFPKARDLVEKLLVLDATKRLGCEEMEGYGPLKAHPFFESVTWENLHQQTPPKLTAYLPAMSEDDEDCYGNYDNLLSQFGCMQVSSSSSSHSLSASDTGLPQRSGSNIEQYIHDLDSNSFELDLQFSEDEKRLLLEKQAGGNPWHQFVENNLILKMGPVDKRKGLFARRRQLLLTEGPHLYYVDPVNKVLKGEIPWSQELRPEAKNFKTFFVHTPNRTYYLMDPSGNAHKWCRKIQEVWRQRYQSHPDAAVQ

Insulin Receptor = Insulin Receptor (Homo sapiens, UniProt P06213); experiment: HotSpot in vitro kinase assay, Insulin Receptor
Sequence of Insulin Receptor (P06213 28-1382): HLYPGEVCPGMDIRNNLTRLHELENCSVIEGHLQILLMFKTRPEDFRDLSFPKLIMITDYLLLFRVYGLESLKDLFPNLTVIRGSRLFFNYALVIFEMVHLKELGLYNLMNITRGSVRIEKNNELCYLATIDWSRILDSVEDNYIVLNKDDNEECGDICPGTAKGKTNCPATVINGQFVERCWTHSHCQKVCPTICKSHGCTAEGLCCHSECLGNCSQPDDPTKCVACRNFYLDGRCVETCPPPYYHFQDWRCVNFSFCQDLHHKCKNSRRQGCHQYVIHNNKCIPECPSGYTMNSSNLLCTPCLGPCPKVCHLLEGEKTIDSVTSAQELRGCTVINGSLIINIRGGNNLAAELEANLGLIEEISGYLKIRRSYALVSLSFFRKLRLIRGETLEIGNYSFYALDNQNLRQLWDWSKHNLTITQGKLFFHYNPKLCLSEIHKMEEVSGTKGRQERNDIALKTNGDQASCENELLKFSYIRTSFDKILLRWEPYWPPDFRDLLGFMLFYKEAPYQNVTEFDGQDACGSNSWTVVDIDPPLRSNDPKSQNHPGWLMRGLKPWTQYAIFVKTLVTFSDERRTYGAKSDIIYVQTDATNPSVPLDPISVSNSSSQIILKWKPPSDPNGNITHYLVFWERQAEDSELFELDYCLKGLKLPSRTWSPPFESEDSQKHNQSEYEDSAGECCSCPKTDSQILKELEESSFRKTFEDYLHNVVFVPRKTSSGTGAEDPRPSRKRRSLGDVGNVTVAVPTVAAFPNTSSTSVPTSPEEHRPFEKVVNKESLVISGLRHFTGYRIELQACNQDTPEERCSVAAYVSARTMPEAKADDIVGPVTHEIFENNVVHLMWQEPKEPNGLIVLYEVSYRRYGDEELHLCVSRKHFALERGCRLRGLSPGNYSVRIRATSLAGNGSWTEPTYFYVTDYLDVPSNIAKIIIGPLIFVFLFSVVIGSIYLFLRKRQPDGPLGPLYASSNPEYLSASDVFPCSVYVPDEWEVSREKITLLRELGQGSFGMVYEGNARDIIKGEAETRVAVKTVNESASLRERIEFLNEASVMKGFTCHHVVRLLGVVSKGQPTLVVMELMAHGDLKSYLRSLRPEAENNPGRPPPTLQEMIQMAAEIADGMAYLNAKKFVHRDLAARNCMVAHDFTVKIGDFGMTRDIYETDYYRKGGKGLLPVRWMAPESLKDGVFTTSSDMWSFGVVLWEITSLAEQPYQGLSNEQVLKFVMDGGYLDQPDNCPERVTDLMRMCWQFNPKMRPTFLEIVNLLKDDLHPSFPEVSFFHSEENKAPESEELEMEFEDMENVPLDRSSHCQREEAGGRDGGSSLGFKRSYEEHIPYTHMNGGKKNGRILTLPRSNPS

[3] = Parallel artificial membrane permeability assay (PAMPA); type: in vitro ADME; conditions: 100 μM
c-Src = c-Src (Homo sapiens, UniProt P12931); experiment: HotSpot in vitro kinase assay, c-Src; conditions: read-out: Compound IC50, c-Src; in vitro kinase activity
Sequence of c-Src (P12931 whole entry): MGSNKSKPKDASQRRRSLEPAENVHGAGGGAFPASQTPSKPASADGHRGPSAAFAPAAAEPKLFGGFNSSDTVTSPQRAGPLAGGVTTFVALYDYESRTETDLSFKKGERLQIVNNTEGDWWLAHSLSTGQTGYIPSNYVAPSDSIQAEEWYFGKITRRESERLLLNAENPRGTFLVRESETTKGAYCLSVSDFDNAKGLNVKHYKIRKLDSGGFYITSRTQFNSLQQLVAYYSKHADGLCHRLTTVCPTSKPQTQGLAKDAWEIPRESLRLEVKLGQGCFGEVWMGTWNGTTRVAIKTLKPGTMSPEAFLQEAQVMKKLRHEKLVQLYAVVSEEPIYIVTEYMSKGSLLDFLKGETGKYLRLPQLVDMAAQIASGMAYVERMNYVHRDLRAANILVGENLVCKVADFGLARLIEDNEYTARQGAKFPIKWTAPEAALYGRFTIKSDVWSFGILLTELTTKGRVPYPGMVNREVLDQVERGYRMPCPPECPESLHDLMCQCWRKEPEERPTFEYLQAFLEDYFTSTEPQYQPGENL

PLSCR1 [4] = experiment: PLSCR1 phosphorylation after HSV-2 (immunoprecipitation/Western); type: cell-based, human; conditions: 10 μM, HaCat, 30 minutes
[5] = tested on: VSV-S (VSV pseudotyped with SARS-CoV-2 spike protein); type: cell-based
HSV-2(G) [6] = experiment: Synchronized HSV infection (entry kinetics) plaque assay; conditions: 10 μM, HaCat, 0.5, 1, 1.5 or 2 hours post-temperature shift
AKT1 = molecular target: T3, AKT1 (Homo sapiens, UniProt P31749); experiment: HotSpot in vitro kinase assay, AKT1; type: biochemical
T3 construct: purchased Reaction Biology Corporation
T3 sequence (P31749 whole entry): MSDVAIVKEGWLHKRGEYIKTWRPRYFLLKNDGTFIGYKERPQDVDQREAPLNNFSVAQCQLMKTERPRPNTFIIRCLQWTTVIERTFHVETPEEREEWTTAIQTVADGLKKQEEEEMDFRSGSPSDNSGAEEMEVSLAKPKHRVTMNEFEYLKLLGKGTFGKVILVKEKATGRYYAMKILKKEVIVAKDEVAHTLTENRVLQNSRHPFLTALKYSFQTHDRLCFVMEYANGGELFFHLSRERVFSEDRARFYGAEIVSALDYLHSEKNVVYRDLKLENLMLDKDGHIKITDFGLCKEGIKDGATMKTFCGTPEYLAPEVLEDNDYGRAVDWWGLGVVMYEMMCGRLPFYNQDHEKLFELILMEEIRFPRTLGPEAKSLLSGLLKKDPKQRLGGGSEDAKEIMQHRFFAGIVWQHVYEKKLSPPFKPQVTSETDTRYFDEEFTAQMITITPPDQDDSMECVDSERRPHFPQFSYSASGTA

Akt, PDPK1 = type: cell-based, monkey; conditions: 10 μM, Vero, VSV-S, 30 and 60 minutes
PLSCR1 [7] = type: cell-based, monkey; conditions: Vero, 30 minutes; drugs 10 μM each
[8] = tested on: primary vaginal epithelial cells; experiment: Proliferation and viability, primary vaginal epithelial cells; type: cell-based, human; conditions: 10 or 50 μM, about 50% confluent primary vaginal epithelial cells, up to 120 h
Method: Results are presented as mean±SEM odu as a percentage of the DMSO control (n=2 independent experiments each conducted in duplicate for C and 1 experiment conducted in duplicate for D). Results in B-D were compared by ANOVA, *p<0.05, **p<0.01, ***p<0.001, ****p<0.0001).
Cell proliferation and viability were determined using the Cell Titer 96® Aqueous One Solution and optical density was determined using a SpectraMax® M5e Molecular Devices multidetection microplate reader. […] The cells were then fixed and stained for activated caspases (red) and SYTOX Green (for integrity of plasma membrane) by Image-iT™ LIVE red Poly Caspase Detection kit. Nuclei were stained with Hoechst. Images were acquired by laser confocal microscope ZeissLive/DuoScan equipped with oil immersion objectives 63×1.1 and captured in an optical slice of 0.37 μm with appropriate filters. Alternatively, immunoblots were prepared and probed with antibodies to cleaved PARP-1 or cleaved caspase 8.

AKT2 = molecular target: T4, AKT2 (Homo sapiens, UniProt P31751); experiment: HotSpot in vitro kinase assay, AKT2; type: biochemical
T4 construct: purchased Reaction Biology Corporation
T4 sequence (P31751 whole entry): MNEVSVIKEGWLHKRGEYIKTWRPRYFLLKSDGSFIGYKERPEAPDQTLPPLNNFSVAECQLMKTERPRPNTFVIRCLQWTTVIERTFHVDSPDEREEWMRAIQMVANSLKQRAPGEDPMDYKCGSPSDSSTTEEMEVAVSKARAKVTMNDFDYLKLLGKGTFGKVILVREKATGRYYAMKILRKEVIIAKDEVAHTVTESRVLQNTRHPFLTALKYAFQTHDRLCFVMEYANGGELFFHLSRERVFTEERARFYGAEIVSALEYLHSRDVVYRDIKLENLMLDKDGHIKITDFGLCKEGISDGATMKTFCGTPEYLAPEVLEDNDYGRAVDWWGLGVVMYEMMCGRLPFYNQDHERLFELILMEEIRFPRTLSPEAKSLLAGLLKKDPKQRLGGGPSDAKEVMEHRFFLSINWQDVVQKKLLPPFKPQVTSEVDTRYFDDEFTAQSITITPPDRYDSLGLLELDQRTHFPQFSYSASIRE

CO[C@@H]1[C@H](N(C)C(=O)CCC(=O)NCc2cn(CCCS(=O)(=O)[O-])nn2)C[C@H]2O[C@]1(C)n1c3ccccc3c3c4c(c5c6ccccc6n2c5c31)C(=O)NC4.[Na+] [CIMSS]
translocation of PtdS and Akt to the outer leaflet of the plasma membrane [1]: did not block | IC50 (AKT3; in vitro kinase activity, read-out: Compound IC50, AKT3): 157 nM | inhibition at 10 µM (AKT3; read-out: inhibition of Akt3): > 75% | IC50 (ABL1): 143 nM | percentage of GFP+ cells (HSV-1 K26GFP; 4 h post-temperature shift): significantly reduced | percentage of GFP+ cells (HSV-1 K26GFP; one hour post temperature shift): significantly decreased | VSV-EBOV-GP infection, percentage of GFP+ cells (VSV-EBOV-GP): no effect | HSV binding to cells (HSV-2(G) [2]): did not block | IC50 for PDPK1 compared with staurosporine (PDPK1): comparable | IC50 (PDPK1; in vitro kinase activity, read-out: Compound IC50, PDPK1): 0.278 nM | inhibition at 10 µM (PDPK1; read-out: inhibition of PDPK1): > 75% | fold less effective than staurosporine (IC50), insulin receptor (Insulin Receptor): ~40 fold | IC50 (Insulin Receptor; read-out: Compound IC50, Insulin Receptor, in vitro kinase activity): 803 nM | Recover %, PAMPA [3]: 83% | IC50 (c-Src): 11.9 nM | phosphorylation of PLSCR1 after HSV-2 (PLSCR1 [4]): not | VSV-S infection (plaques or viral yields) [5]: inhibited | VSV-S infection, percentage of GFP+ cells [5]: significantly reduced | viral plaque formation, synchronized infection (HSV-2(G) [6]): significant reduction | fold less effective than staurosporine (IC50), Akt1 (AKT1): ~230 fold | IC50 (AKT1; in vitro kinase activity, read-out: Compound IC50, AKT1): 461 nM | inhibition at 10 µM (AKT1; read-out: inhibition of Akt1): > 75% | extracellular phosphorylation of Akt (biotinylation, pAktT308) (Akt, PDPK1): inhibited | phosphorylation of PLSCR1 after VSV-S (PLSCR1 [7]): preserved | cytotoxicity [8]: little or no cytotoxicity | IC50 (AKT2; in vitro kinase activity, read-out: Compound IC50, AKT2): 1000 nM | inhibition at 10 µM (AKT2; read-out: inhibition of Akt2): > 75%
